Assay results from patent publication US20250295608A1, “PHARMACEUTICAL COMPOSITIONS AND METHODS FOR TREATING OSTEOARTHRITIS” (INSIGNIA PHARMACEUTICALS, LLC, priority 2024, published 2025).
“Also recorded” adds a separate entry of the source.

Key:
PGE2 = test: IL-1β-induced PGE2 in osteoarthritic human synoviocytes; assay type: cell-based; settings: for PGE2 release: 200 nanomolar DA or 500 ng/mL IL-1RA, pretreatment 5 min, 1 h or 2 h, IL-1β 1 ng/mL for 10 minutes or 1 hour
Description: FIG. 31A depicts early concentrations of PGE2 present in primary […] of varying concentrations of Dex and DA in view of controls. The concentrations in FIG. 31A were measured at hour three.
FIG. 31B is a bar graph depicting PGE2 release from human osteoarthritic synoviocytes treated with media, 200 nanomolar DA, or 500 nanograms/milliliter of IL-1 Receptor Antagonist (IL-1RA) for the specified pretreatment times at the bottom of each panel (5 minutes, 1 hour, or 2 hours, and then stimulated with 1 nanogram/milliliter IL-1β for either 10 minutes or 1 hour, as indicated. PGE2 in picograms/milliliter was released at detectable levels in each of the media treated samples, including the short 10-minute IL-1β stimulation conditions, implicating low level activation caused by a change of media. The media controls within each panel of treatments released increased PGE2 compared to DA treated cells. Cells were also treated with IL-IRA which inhibits IL-1β by binding […], effectively blocking IL-1β signaling. […] DA is able to incorporate into the cell membrane_and the immediate inhibition of signaling may reflect the ability of DA to change the biophysical properties of the cell membrane.
FIG. 33 illustrates two bar graphs that depict the concentrations of PGE2 inside of the cell versus PGE2 that was secreted into the cell culture media. Specifically, the bar graph labeled “Intracellular” illustrates the concentrations of PGE2 inside of the cell and the bar graph labeled “Supernatent” illustrates the concentration of PGE2 that was secreted into the cell culture media. Synoviocytes were stimulated with IL-1β for 6 hours and then cell culture media harvested separately along with collecting cell lysates. […] Specifically, treating osteoarthritic HSF cells with 1 ng/ml IL-1β final concentration causes the cells to secrete large amounts of PGE2 into the cell culture media. […] To test this, the PGE2 concentrations inside of the cells and in the cell culture media were measured to compare them directly to each other. […] Thus, without being bound by theory, it is believed that DA binds to or interacts with MRP4 proteins and prevents MRP4 from successfully transporting PGE2.

Cyclooxygenase-2 (COX-2) = target: T1, Cyclooxygenase-2 (COX-2) (Homo sapiens, UniProt P35354); test: COX-2 inhibitor screen; assay type: biochemical; settings: any of the concentrations tested
T1 sequence (P35354 18-604): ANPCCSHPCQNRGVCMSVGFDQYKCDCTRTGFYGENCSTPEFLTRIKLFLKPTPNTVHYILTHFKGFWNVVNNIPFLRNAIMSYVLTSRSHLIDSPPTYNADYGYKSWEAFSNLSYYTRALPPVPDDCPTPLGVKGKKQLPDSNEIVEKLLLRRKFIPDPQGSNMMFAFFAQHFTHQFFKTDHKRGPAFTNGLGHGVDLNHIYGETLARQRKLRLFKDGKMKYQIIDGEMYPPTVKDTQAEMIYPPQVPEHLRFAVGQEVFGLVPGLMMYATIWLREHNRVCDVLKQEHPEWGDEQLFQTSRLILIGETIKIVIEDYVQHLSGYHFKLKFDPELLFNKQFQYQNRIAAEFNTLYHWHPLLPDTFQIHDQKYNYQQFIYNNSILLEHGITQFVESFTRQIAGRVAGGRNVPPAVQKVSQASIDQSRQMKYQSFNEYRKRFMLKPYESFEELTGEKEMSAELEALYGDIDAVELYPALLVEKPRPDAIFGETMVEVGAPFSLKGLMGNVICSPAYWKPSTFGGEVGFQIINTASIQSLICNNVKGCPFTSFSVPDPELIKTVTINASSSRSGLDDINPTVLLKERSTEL
Description: Celecoxib (Celebrex) was used as a positive control for COX-2.

SOX9 = SOX9 relative expression in osteoarthritic chondrocytes (qRT-PCR, normalized to GAPDH); assay type: cell-based, human
prostaglandin I2 (PGI2) = test: PGI2 in IL-1β-stimulated osteoarthritic synoviocytes; assay type: cell-based, human; settings: IL-1β 1 ng/ml, 24 hours
Description: FIG. 25 is a bar graph that depicts the concentration of prostaglandin I2 (PGI2) present in primary human synoviocytes from patients with osteoarthritis that were stimulated with 1 ng/ml final concentration of IL-1β for 24 hours in the presence of varying concentrations of DA and Dex in view of controls. PGI2 concentration response mirrored PGE2 concentrations after DA treatment. […] It is noted that prostaglandin H2 (PGH2) was also tested and was not detected in either cell culture media or from cell lysates. Without being bound by theory, it is believed that PGH2 is an intermediate and is (near) immediately converted into downstream prostaglandins and therefore levels of PGH2 are not detectable.

[1] = test system: interleukin-18, tumor necrosis factor, interleukin-8, and interleukin-6; test: Other cytokines in two-hit stimulated THP1 macrophages; assay type: cell-based, human; settings: dose dependent; data not shown
arachidonic acid (AA) = test: Arachidonic acid in IL-1β-stimulated osteoarthritic synoviocytes; assay type: cell-based, human; settings: IL-1β 1 ng/mL, 3 hours; cell lysates
Description: Early concentrations of arachidonic acid (AA) present in primary human synoviocytes from patients with osteoarthritis that were stimulated with 1 ng/mL final concentration interleukin 1-beta (B) for 3 hours in the presence of varying concentrations of Dex and DA in view of controls are depicted in FIG. 32. The concentrations of AA in FIG. 32 were normalized to total protein content from the cell lysates using bicinchoninic acid (BCA).

prostaglandin D2 (PGD2) = test: IL-1β-induced PGD2 release in osteoarthritic human synoviocytes; assay type: cell-based; settings: IL-1β 0.5 ng/mL
[2] = test system: IL-1β-induced PGE2 release; test: IL-1β-induced PGE2 release from normal human chondrocytes (competitive EIA); assay type: cell-based; settings: for inhibition at 10 µM: Homo sapiens, Chondrocyte
MMP13 = MMP13 relative expression in osteoarthritic chondrocytes (qRT-PCR); assay type: cell-based, human; settings: for Observed Relative expression of MMP13: 0.1% HA, 0.1 uM Dex
SOX9 versus RUNX2 = test: Relative expression of SOX9 versus RUNX2 in osteoarthritic chondrocytes; assay type: cell-based, human; settings: for expression of SOX9 compared to RUNX2: passage 5 human osteoarthritic chondrocytes, 27 days
RUNX2 = RUNX2 relative expression in osteoarthritic chondrocytes (qRT-PCR)
Description: Examples of the present disclosure were conducted to evaluate the expression of key chondrocyte markers in the presence of test compounds. High passage and low passage chondrocytes were prepared where in both cases, primary human chondrocytes were cultured as confluent monolayers on tissue culture plates. For the high passage chondrocytes, fibroblast-like human osteoarthritic chondrocytes were used. The cells were cultured for an extended period before investigation (passage 13).
When indicated, the cells were also cultured with TGF-β3 at a final concentration of 10 ng/ml.
The data is presented as GAPDH normalized relative expression of key markers versus unstimulated controls.
The culture mediums were replenished weekly by withdrawing about half of the volume and replacing them with warmed mediums supplemented as needed. After 27 days, total RNA was extracted and qRT-PCR was carried out with primer sets for SOX9, RUNX2, and GAPDH.

Elastin (ELN) = test: ELN mRNA in normal human dermal fibroblasts (NHDF), qRT-PCR; assay type: cell-based; settings: IL-1β 0.1 ng/ml, 24 hours; 100 mM Lac, 0.1 mM Dxp; n=3
Description: (§1) After 24 hours, total mRNA was isolated and delta-delta Cp relative expression was calculated versus untreated medium controls, normalized to the housekeeping gene, GAPDH. Statistical analysis was then conducted via t-test.

Aggrecan (ACAN) = test: ACAN relative expression in osteoarthritic chondrocytes (qRT-PCR); assay type: cell-based; settings: passage 5 human osteoarthritic chondrocytes, 27 days
Description: Delta-delta relative gene expression was employed to determine ACAN regulation in the 27-day samples referenced in Examples 15 and 16.

[3] = test system: type II collagen (Col2a1); test: Col2a1 relative expression in osteoarthritic chondrocytes (qRT-PCR); assay type: cell-based, human
type I collagen (Col1a1) = test: Col1a1 relative expression in osteoarthritic chondrocytes (qRT-PCR); assay type: cell-based; settings: passage 5 human osteoarthritic chondrocytes, 27 days
Description: To evaluate the biological ramifications of the SOX9 to RUNX2 regulation mentioned above, delta-delta relative gene expression was assessed against medium controls, with normalization to GAPDH for both Col2a1 and Col1a1 in the samples tested with reference to Example 15. […] Moreover, treatment with 100 mM Lac increased collagen expression (49.88+4.31 and 1.63+0.20 for Col2a1 and Col1a1, respectively; FIGS. 51 and 52).

[4] = test system: matrix metalloproteinase 12 (MMP12); test: MMP12 mRNA in NHDF, qRT-PCR; assay type: cell-based, human; settings: IL-1β 0.1 ng/ml, 24 hours; 100 mM Lac, 0.1 mM Dxp
Description: as §1

[5] = test system: matrix metalloproteinase 3 (MMP3); test: MMP3 mRNA in NHDF, qRT-PCR; assay type: cell-based, human; settings: IL-1β 0.1 ng/ml, 24 hours; 100 mM Lac, 0.1 mM Dxp
Description: as §1

IL-1β release = test: Two-hit (LPS then ATP) inflammasome activation, IL-1β release from THP1 macrophages; assay type: cell-based, human; settings: with 25 nanomolar Dex
Description: A two-hit model of inflammasome activation in THP1 macrophages was developed that entails an overnight stimulation with LPS followed by a second proinflammatory stimulus, extracellular ATP, which drives inflammasome assembly and subsequent IL-1β release from the cells into the media.
In three independent experiments, THP1 macrophages stimulated by the two-hit model of inflammasome activation released IL-1β in control conditions.

[6] = high passage, dedifferentiated osteoarthritic chondrocytes, TGF-β3, 14 days
[7] = low passage osteoarthritic chondrocytes, 7, 14, 28 days
[8] = pre-incubation 24 hours, 24-hour harvest, 25 uM Dec, 28 mM Lac, 10 uM LA, singlet
[9] = passage 5 human osteoarthritic chondrocytes, 27 days
[10] = 100 millimolar Lac with 10 ng/mL TGF-B3, 14 days, micromass cultures
[11] = 100 millimolar Lac, 14 days, monolayer cultures
[12] = rescue (added after overnight IL-1β activation), 24-hour harvest, 25 uM Dec, 28 mM Lac, 10 uM LA, singlet
[13] = rescue, 96-hour harvest, 25 uM Dec, 28 mM Lac, 10 uM LA, singlet

CCCCCCCCCC(=O)O [DA, decanoic acid]
PGE2 release (PGE2): blocked the low-level activation seen in media controls | concentrations inhibiting PGE2 release (PGE2; IL-1β 0.5 ng/mL): above 1 micromolar | PGE2 inside of the cell (PGE2; IL-1β 1 ng/ml, 6 hours, cell lysates): causes PGE2 to build up intracellularly | PGE2 secreted into the cell culture media (PGE2; IL-1β 1 ng/ml, 6 hours, supernatant): causes PGE2 secretion to be abrogated | increase in potency of DA (PGE2; by 100 picomolar Dex): 2.2 × | inhibition of COX-2 activity (Cyclooxygenase-2 (COX-2)): no observed inhibition | SOX9 expression (SOX9; [6]): increased SOX9 transcription | secreted PGI2 levels (prostaglandin I2 (PGI2)): decreases secreted PGI2 levels | expression of interleukin-18, tumor necrosis factor, interleukin-8, and interleukin-6 [1]: reduced the expression | concentration of AA normalized to total protein (arachidonic acid (AA)): lower concentrations of AA than the Dex samples; also recorded: lower than that of the control with IL-1β | concentrations inhibiting PGD2 release (prostaglandin D2 (PGD2)): above 1 micromolar

CCCCCCCCCC(=O)O [DA/Dec]
SOX9 expression (SOX9; [6]): increased expression of SOX9

C[C@@H]1C[C@H]2[C@@H]3CCC4=CC(=O)C=C[C@]4(C)[C@@]3(F)[C@@H](O)C[C@]2(C)[C@@]1(O)C(=O)CO [Dex, dexamethasone, reference compound]
concentration with statistical significance, PGE2 release ([2]; IL-1β, 48 h): 100 picomolar

C[C@@H]1C[C@H]2[C@@H]3CCC4=CC(=O)C=C[C@]4(C)[C@@]3(F)[C@@H](O)C[C@]2(C)[C@@]1(O)C(=O)COP(=O)(O)O [Dxp, dexamethasone phosphate, reference compound]
MMP13 transcription (MMP13; [7]): reduce MMP13 transcription | SOX9 expression (SOX9; [6]): decreased expression of SOX9 | SOX9 expression (SOX9; [7]): temporal decrease in expression of SOX9

O=C(O)CCCCC1CCSS1 (stereo not drawn) [LA, α-lipoic acid]
SOX9 expression (SOX9; [6]): increased SOX9 transcription; also recorded: increases SOX9 relative expression | inhibition at 10 µM ([2]; 96 h, rescue, 96-hour harvest, 25 uM Dec, 28 mM Lac, 10 uM LA, singlet): 33% | inhibition at 10 µM [2, 8]: -59%

CC(O)C(=O)O (centres unmarked) [Lac, lactate]
ratio of SOX9/RUNX2 (SOX9 versus RUNX2; [7]): temporally increased | expression of SOX9 compared to RUNX2 (SOX9 versus RUNX2): 25.14+12.71 | RUNX2 expression (RUNX2; [7]): temporal decrease in RUNX2; also recorded: temporally reduced RUNX2 expression | relative expression of RUNX2 versus medium controls (RUNX2; [9]): −2.51+1.33 | relative expression of ELN (Elastin (ELN)): 0.86+3 | relative expression of ACAN (Aggrecan (ACAN)): 3.81+0.77 fold | increase in Col2a1 [3, 10]: 88 fold | increase in collagen ([3]; 100 millimolar Lac, 14 days, micromass pellets): 11 fold | increase in relative expression of Col2a1 [3, 11]: 1600 fold | increase in Col2a1 compared to controls ([3]; high passage osteoarthritic chondrocytes, TGF-B, 14 days, 28 mM Lac): 30 fold | relative expression of Col2a1 ([3]; low passage osteoarthritic chondrocytes, day 28): elevated Col2a1 relative expression | relative expression of Col2a1 versus medium controls [3, 9]: 49.88+4.31 fold | increase in SOX9 (SOX9; [10]): 9 fold | increase in relative expression of SOX9 (SOX9; [11]): 8 fold | increase in SOX9 transcription (SOX9; high passage osteoarthritic chondrocytes, TGF-B, 14 days, 100 mm LA, 28 mM Lac): 2 fold | SOX9 expression (SOX9; [6]): increased SOX9 transcription; also recorded: increased expression of SOX9 | SOX9 expression (SOX9; [7]): temporal increase in SOX9 | relative expression of SOX9 versus medium controls (SOX9; passage 5 human osteoarthritic chondrocytes, 27 days, 50 micromolar Dec, 0.1 micromolar Dxp, 100 millimolar Lac): 6.34+2.46 fold | relative expression of Col1a1 versus medium controls (type I collagen (Col1a1)): 1.63+0.20 fold | inhibition of PGE2 release ([2]; 100 millimolar Lac, 0.5 ng/mL IL-1β, 48 h): complete inhibition | concentration with statistically significant effect, PGE2 release ([2]; IL-1β, 48 h): ≥ 10 millimolar | inhibition of PGE2 release [2, 8]: −139% | inhibition of PGE2 release [2, 12]: 64% | inhibition of PGE2 release [2, 13]: 27% | relative expression of MMP12 [4]: 2.2 ± 0.8 | relative expression of MMP3 [5]: 1.5 ± 0.8

CCCCCCCCCC(=O)[O-].[Na+] [decanoate, sodium decanoate]
expression of SOX9 compared to RUNX2 (SOX9 versus RUNX2): 1.80+0.47 | increase in potency of sodium decanoate (IL-1β release): 4.6 × | inhibition of PGE2 release ([2]; added at the same time as IL-1β, 24-hour harvest, 25 uM Dec, singlet): 53% | inhibition of PGE2 release ([2]; added at the same time as IL-1β, 96-hour harvest, 25 uM Dec, singlet): 76% | inhibition of PGE2 release [2, 8]: 41% | inhibition of PGE2 release ([2]; pre-incubation, 96-hour harvest, 25 uM Dec, singlet): 75% | inhibition of PGE2 release [2, 12]: 72% | inhibition of PGE2 release [2, 13]: 57%

IL-1RA: IL-1 Receptor Antagonist, blocks IL-1β signaling [reference compound]
PGE2 release (PGE2): consistently higher than PGE2 levels in DA treated cells

hyaluronic acid [HA]
Observed Relative expression of MMP13 (MMP13; 14-day micromass pellet culture): −1.6 fold | Observed Relative expression of MMP13 (MMP13; 28-day monolayer culture): 1.0 fold
